Results published in PMC8728392, “Synthesis, Anticancer Assessment, and Molecular Docking of Novel Chalcone-Thienopyrimidine Derivatives in HepG2 and MCF-7 Cell Lines” (Oxidative Medicine and Cellular Longevity, 2021).

How the values were obtained:
[1] = tested on: A549 human lung adenocarcinoma cells; set-up: method as in PMID 29660690; settings: cited from earlier work
HepG2 cell line = assay: Cell cycle analysis (PI, flow cytometry); format: cell-based, human
Experimental: Cell cycle analysis was performed to decide if the newly synthesized thienopyrimidine derivatives arrested the cell cycle and at what phase of the cell cycle, the HepG2 and MCF-7 cell lines were arrested. The experiments were performed as previously described by Tolba et al.. HepG2 and MCF-7 cell lines were seeded and incubated with the tested compounds in 6-well plates. After incubation overnight, the cells were washed twice with ice-cold phosphate-buffered saline (PBS), detached by EDTA-trypsinization from the plates, harvested by centrifugation, fixed in ice-cold 70% (v/v) ethanol, and washed with phosphate-buffered saline (PBS, pH 7.2 ± 0.2). The cells were resuspended with 0.1 mg/ml RNase, stained with […] propidium iodide (PI), and analyzed by flow cytometry using a FACSCalibur flow cytometer (BD Biosciences, San Jose, CA). CellQuest software (Becton Dickinson) was used to determine the cell cycle distributions after incubation with 5-FU or tested compounds. Exposure of HepG2 and MCF-7 cell lines to these compounds could interfere with the normal cell cycle distribution.

[2] = tested on: Bax, Bcl-2, caspase-3, and caspase-9 in HepG2; assay: RT-PCR relative expression of apoptosis markers; format: cell-based, human; settings: IC50, 8-hour incubation, vs control
Description: We determined the effect of IC50 concentration of newly synthesized thienopyrimidine derivatives (3a-e and 3g and 3b and 3g) on the relative expression levels of some markers of apoptosis in HepG2 and MCF-7 cell lines, respectively. These included the antiapoptotic marker Bcl-2 as well as the apoptotic markers Bax, caspase-3, and caspase-9 [33]. BIORAD iScript™ One-Step RT-PCR kit with SYBR® Green was used to assess the relative levels of expression of apoptosis markers. The measurement was carried out according to the technique of reverse transcription polymerase chain reaction (RT-PCR) using the Rotor-Gene RT-PCR system, and the method of the used kit was done based on the manufacturer's instructions. The procedure of this assay included the following:
Based on the manufacturer's instructions, the Qiagen RNeasy Extraction Kit (Qiagen Ltd., UK) was used to isolate mRNA from approximately 1 × 10^7 cells according to the cell line.
Mix all the following reagents to get the total volume (50 μl): 2X SYBR® Green RTPCR reaction mixture (25 μl), forward primer […] (1.5 μl), reverse primer […] (1.5 μl), nuclease-free water (11 μl), RNA template (1 pg-100 ng total RNA) (10 μl), and iScript reverse transcriptase (1 μl) for One-Step RT-PCR.
The thermal cycler (Rotor-Gene) program used was as follows: one cycle for reverse transcription at 50°C for 10 minutes and one cycle for RT inactivation/Hot-start activation at 95°C for 5 minutes and then 45 cycles for qPCR (10 s at 95°C, 30 seconds for annealing at 55°C, and 30 seconds for extension at 72°C), and this is followed by the final extension (one cycle) at 72°C for 10 minutes.

MCF-7 cell line = assay: Annexin V-FITC/PI apoptotic assay; format: cell-based, human
Description: (§1) Annexin V-fluorescein isothiocyanate (FITC) and counterstaining with propidium iodide (PI) using the Annexin V-FITC/PI apoptosis detection kit (BD Biosciences, San Diego, CA) were employed to distinguish early and late apoptotic cells according to the manufacturer's directions. Annexin V conjugated with fluorescein isothiocyanate was used to quantify the loss of phosphatidylserine asymmetry in cell membranes involved in apoptosis, and propidium iodide can distinguish between early apoptosis, late apoptotic, and necrotic cells. Analyses were achieved by using a FACSCalibur flow cytometer (BD Biosciences, San Jose, CA).
(§2) Cells were gently washed twice with PBS accompanied by tryptic digestion (0.25% trypsin/EDTA) and washed yet again with PBS. All the cells including the floating and adherent ones were harvested, pooled and stained with […] in 1× binding buffer for 15 min at room temperature in the dark. Analyses were achieved by FACS Calibur flow cytometer (BD Biosciences, San Jose, CA).

HepG2 cells = assay: Annexin V-FITC/PI apoptotic assay; format: cell-based, human
Description: as §1, §2

[3] = tested on: human breast cancer cell line (MCF-7); assay: MTT assay, cytotoxicity; format: cell-based; settings: MCF-7, 24 hours
Experimental: (§3) Cancer cell lines were manipulated according to the method described by Sigounas et al.. In this method, the cell lines were grown as adherent monolayers in T75 flasks with Dulbecco's modified Eagle's medium (DMEM) supplemented with 10% Fetal Bovine Serum (FBS), 2 mM L-glutamine, and 1% streptomycin/penicillin. The cells were left to grow in a CO2 incubator at 37°C, 5% CO2, and 95% humidity until their confluence.
(§4) The 3-[4,5-dimethylthiazol-2-yl]-2,5-diphenyltetrazolium bromide (MTT) colorimetric assay was used to examine the sensitivity of cells to tested compounds (as anticancer drugs), as previously described. This assay depends on the production of a purple formazan derivative from the yellow tetrazolium bromide (MTT) by mitochondrial succinate dehydrogenase in viable cells. The percentage of cell survival was calculated as follows: (1) Percentage of survival=O.D.treated cells/O.D.control cells×100.
(§5) For preliminary screening of the cytotoxicity of synthesized compounds 3a-g, cells exposed to DMSO were used as a control. Plotting the relationship between the survival score and the compound concentration and calculating the IC50 (the concentration required to inhibit cell viability by 50%) were performed for each test compound according to Li et al. in comparison with the reference standard anticancer agent, 5-FU.
(§6) The 3-[4,5-dimethylthiazol-2-yl]-2,5-diphenyltetrazolium bromide (MTT) colorimetric assay was used to examine the sensitivity of cells to tested compounds (as anticancer drugs), as previously described by Hussein et al. (2017). This assay depend on the production of a purple formazan derivative from the yellow tetrazolium bromide (MTT) by mitochondrial succinate dehydrogenase in viable cells. Briefly, after harvesting the cells with 0.25% trypsin, the cell lines were suspended in DMEM. Cells were seeded in 96-well microtiter plates at a concentration of 5×10^4 cell/well in a fresh medium and left to attach to the plates for 24 h before treatment with the tested compounds 3a-g. Test compounds were dissolved in dimethyl sulfoxide (DMSO). After 24 hours, cells were incubated with the appropriate concentration ranges of compounds, the wells were diluted to […] with fresh medium and incubation was continued for 24 hours. Three wells were used for each concentration. After 24 hours of treatment, 20 μl of MTT solution (5mg/ml) was added and subsequently the plates were further incubated for 4 hours to allow the viable cells to biotransform the yellow-colored MTT into purple formazan crystals. The optical density (O.D.) of each well was measured spectrophotometrically at […] with an enzyme-linked immunosorbent assay (ELISA) microplate reader (BioTek, EL-800, USA). The percentage of cell survival was calculated as follows: […]

[4] = tested on: human liver cancer cell line (HepG2); assay: MTT assay, cytotoxicity; format: cell-based; settings: HepG2, 24 hours
Experimental: as §3, §4, §5, §6

Bcl-2 16me = tested on: Bcl-2 16me; set-up: method as in PMID 19027294; settings: cited from earlier work
Bcl-2 26me = tested on: Bcl-2 26me; set-up: method as in PMID 19027294; settings: cited from earlier work

Row | Compound | IC50 [1] [nM] | cell population in pre-G1 phases compared with control cells (HepG2 cell line) | expression levels of Bcl-2 [2] | survival percentage (mean ± SEM) ([3]; 4.8828125 μg/ml) [%] | survival percentage (mean ± SEM) ([3]; 9.765625 μg/ml) [%] | survival percentage (mean ± SEM) ([3]; 19.53125 μg/ml) [%] | survival percentage (mean ± SEM) ([3]; 39.0625 μg/ml) [%] | survival percentage (mean ± SEM) ([3]; 78.125 μg/ml) [%] | survival percentage (mean ± SEM) ([3]; 156.25 μg/ml) [%] | survival percentage (mean ± SEM) ([3]; 312.5 μg/ml) [%] | survival percentage (mean ± SEM) ([3]; 625 μg/ml) [%] | survival percentage (mean ± SEM) ([3]; 1250 μg/ml) [%] | survival percentage (mean ± SEM) ([3]; 2500 μg/ml) [%] | survival percentage (mean ± SEM) ([3]; 5000 μg/ml) [%] | survival percentage (mean ± SEM) ([3]; 10000 μg/ml) [%] | survival percentage (mean ± SEM) ([4]; 4.8828125 μg/ml) [%] | survival percentage (mean ± SEM) ([4]; 9.765625 μg/ml) [%] | survival percentage (mean ± SEM) ([4]; 19.53125 μg/ml) [%] | survival percentage (mean ± SEM) ([4]; 39.0625 μg/ml) [%] | survival percentage (mean ± SEM) ([4]; 78.125 μg/ml) [%] | also measured
1 | N.N.[Cl][Pt][Cl] [cisplatin] | 15300 |  |  |  |  |  |  |  |  |  |  |  |  |  |  |  |  |  |  |  | 
2 | CCOC(=O)Cn1c(SCC(=O)Nc2ccc(C(=O)/C=C\c3ccccc3Cl)cc2)nc2sc3c(c2c1=O)CCN(C(=O)OCC)C3 [Compound 3a, Ethyl (Z)-2-((2-((4-(3-(2-Chlorophenyl)acryloyl)phenyl)amino)-2-oxoethyl)thio)-3-(2-ethoxy-2-oxoethyl)-4-oxo-3,5,6,8-tetrahydropyrido[4′,3′:4,5]thieno[2,3-d]pyrimidine-7(4H)-carboxylate] |  | significant increase | noticeably decreased | 150.0 ± 0.171 | 132.9 ± 0.132 | 124.4 ± 0.079 | 129.1 ± 0.038 | 108.4 ± 0.084 | 101.8 ± 0.284 | 101.6 ± 0.022 | 64.9 ± 0.008 | 9.8 ± 0.003 | 6.28 ± 0.003 | 6.0 ± 0.001 | 6.0 ± 0.063 | 103.5 ± 0.033 | 87.8 ± 0.087 | 74.2 ± 0.012 | 73.8 ± 0.019 | 66.9 ± 0.018 | cell population in G2/M compared with control cells (HepG2 cell line): substantial increase; melting point: 181 to 182 °C; total, early, and late apoptosis as well as necrosis relative to the control cells (MCF-7 cell line): significant increase; early and late apoptosis (HepG2 cells): significantly exhibited early and late apoptosis; survival percentage (mean ± SEM) ([4]; 156.25 μg/ml): 40.1 ± 0.021%; survival percentage (mean ± SEM) ([4]; 312.5 μg/ml): 28.4 ± 0.009%; survival percentage (mean ± SEM) ([4]; 625 μg/ml): 21.7 ± 0.012%; survival percentage (mean ± SEM) ([4]; 1250 μg/ml): 20.5 ± 0.004%; survival percentage (mean ± SEM) ([4]; 2500 μg/ml): 19.5 ± 0.001%; survival percentage (mean ± SEM) ([4]; 5000 μg/ml): 19.1 ± 0.001%; survival percentage (mean ± SEM) ([4]; 10000 μg/ml): 18.5 ± 0.001%
3 | C=CCn1c(SCC(=O)Nc2ccc(C(=O)/C=C/c3cc(OC)c(OC)c(OC)c3)cc2)nnc1-c1ccc(OC)cc1 [compound I] | 4400 |  |  |  |  |  |  |  |  |  |  |  |  |  |  |  |  |  |  |  | 
4 | Cc1c(Cl)c(C(=O)N(c2ccccc2)c2ccccc2)nn1-c1ccccc1C(=O)N1Cc2ccccc2CC1CN (stereo not shown) [DRO] |  |  |  |  |  |  |  |  |  |  |  |  |  |  |  |  |  |  |  |  | IC50 (Bcl-2 16me): 30 nM; IC50 (Bcl-2 26me): 100 nM
5 | Ethyl (Z)-2-(Ethoxymethyl)-4-oxo-3-(2-oxo-2-((4-(3-(2,3,4-trimethoxyphenyl)acryloyl)-phenyl)amino)ethyl)-3,5,6,8-tetrahydropyrido[4′,3′:4,5]thieno[2,3-d]pyrimidine-7(4H)-carboxylate [Compound 3d] |  | significant increase | noticeably decreased | 133.8 ± 0.227 | 146.0 ± 0.065 | 133.2 ± 0.116 | 132.7 ± 0.231 | 113.1 ± 0.171 | 103.1 ± 0.202 | 35.3 ± 0.044 | 26.5 ± 0.120 | 8.5 ± 0.006 | 6.2 ± 0.005 | 6.12 ± 0.003 | 5.8 ± 0.001 | 123.0 ± 0.026 | 111.0 ± 0.041 | 99.2 ± 0.026 | 91.2 ± 0.138 | 31.0 ± 0.017 | S phase cell population (HepG2 cell line): significant (P < 0.05) increase; survival percentage (mean ± SEM) ([4]; 156.25 μg/ml): 20.5 ± 0.002%; survival percentage (mean ± SEM) ([4]; 312.5 μg/ml): 20.5 ± 0.002%; survival percentage (mean ± SEM) ([4]; 625 μg/ml): 20.0 ± 0.001%; survival percentage (mean ± SEM) ([4]; 1250 μg/ml): 19.5 ± 0.001%; survival percentage (mean ± SEM) ([4]; 2500 μg/ml): 19.4 ± 0.004%; survival percentage (mean ± SEM) ([4]; 5000 μg/ml): 18.5 ± 0.003%; survival percentage (mean ± SEM) ([4]; 10000 μg/ml): 18.4 ± 0.002%
